Measured values from PubChem BioAssay AID330 (DTP/NCI, 2004).
Several values for one entry are separate records, joined by “and”; a condition that tells them apart may be missing. Equal values may be shown once. Inconclusive results and toxic doses are left out. The calls were made as follows: active = survival T/C of 150% or more; inactive = T/C below 125% in these data.

Tested on: P388 leukemia ip, CD2F1 mice, survival T/C
Test: NCI In Vivo Anticancer Drug Screen. Data for tumor model P388 Leukemia (intraperitoneal) in CD2F1 (CDF1) mice
Details: endpoint: median survival time, higher = longer survival
In short: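 Mice carrying the transplanted tumor received test compound or vehicle. Survival was recorded in each group, and the value is the treated-group measurement divided by that of the vehicle-treated control group.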

[1] = dose: 60.0 mg/kg/injection, schedule: Q01DX005 (ip), vehicle: saline with Tween-80
[2] = dose: 120.0 mg/kg/injection, schedule: Q01DX005 (ip), vehicle: saline with Tween-80
[3] = dose: 240.0 mg/kg/injection, schedule: Q01DX005 (ip), vehicle: saline with Tween-80
[4] = dose: 50.0 mg/kg/injection, schedule: Q01DX005 (ip), vehicle: saline with Tween-80
[5] = dose: 100.0 mg/kg/injection, schedule: Q01DX005 (ip), vehicle: saline with Tween-80
[6] = dose: 200.0 mg/kg/injection, schedule: Q01DX005 (ip), vehicle: saline with Tween-80

Measured: T/C

CC1(C)OC2OC(C3COC(=O)O3)C(O)C2O1 (stereo not drawn)
inactive: dose: 50.0 mg/kg/injection, schedule: Q01DX005 (ip), vehicle: Klucel (hydroxypropylcellulose) (HPC) 95 % of control | dose: 100.0 mg/kg/injection, schedule: Q01DX005 (ip), vehicle: Klucel (hydroxypropylcellulose) (HPC) 98 % of control | dose: 200.0 mg/kg/injection, schedule: Q01DX005 (ip), vehicle: Klucel (hydroxypropylcellulose) (HPC) 101 % of control

O=C(O)C(Oc1nc(=S)[nH]c(=S)[nH]1)(c1ccc(Cl)cc1)c1ccc(Cl)cc1
inactive: [1] 103 % of control | [2] 101 % of control | [3] 103 % of control

Cc1ccc(-n2c(=S)n(-c3ccccc3C)c3nc4ccccc4nc2/c3=N\Nc2ccc(Cl)cc2)cc1
inactive: [4] 92 % of control | [5] 88 % of control | [6] 95 % of control

CCOC(=O)C(NC(=O)OCc1ccccc1)C(O)C#C[Si](C)(C)C (stereo not drawn)
inactive: dose: 100.0 mg/kg/injection, schedule: Q04DX002 (ip), vehicle: saline with Tween-80 95 % of control | dose: 200.0 mg/kg/injection, schedule: Q04DX002 (ip), vehicle: saline with Tween-80 95 % of control | dose: 400.0 mg/kg/injection, schedule: Q04DX002 (ip), vehicle: saline with Tween-80 90 % of control

CCOC(OCC)C(=O)OCC(=O)[C@]1(O)Cc2c(O)c3c(c(O)c2[C@@H](OC2CC(N)C(O)C(C)O2)C1)C(=O)c1c(OC)cccc1C3=O (stereo partly drawn)
active: dose: 0.5 mg/kg/injection, schedule: Q01DX009 (ip), vehicle: saline 160 % of control | dose: 1.0 mg/kg/injection, schedule: Q01DX009 (ip), vehicle: saline 173 % of control | dose: 2.0 mg/kg/injection, schedule: Q01DX009 (ip), vehicle: saline 245 % of control | dose: 4.0 mg/kg/injection, schedule: Q01DX009 (ip), vehicle: saline 198 % of control | dose: 4.0 mg/kg/injection, schedule: Q03HX008 (ip), vehicle: saline 168 % of control | dose: 16.0 mg/kg/injection, schedule: Q01DX001 (ip), vehicle: saline 170 % of control | dose: 32.0 mg/kg/injection, schedule: Q01DX001 (ip), vehicle: saline 189 % of control
inactive: dose: 0.13 mg/kg/injection, schedule: Q03HX008 (ip), vehicle: saline 111 % of control | dose: 0.25 mg/kg/injection, schedule: Q03HX008 (ip), vehicle: saline 117 % of control | dose: 1.0 mg/kg/injection, schedule: Q01DX001 (ip), vehicle: saline 118 % of control | dose: 2.0 mg/kg/injection, schedule: Q01DX001 (ip), vehicle: saline 123 % of control | dose: 8.0 mg/kg/injection, schedule: Q03HX008 (ip), vehicle: saline 88 % of control | dose: 64.0 mg/kg/injection, schedule: Q01DX001 (ip), vehicle: saline 87 % of control

Clc1ccc([C@H]2N[C@@H]2c2ccccn2)cc1
inactive: [1] 94 % of control | [2] 103 % of control | [3] 94 % of control

CSc1ccc(SC)c2c1C(=O)c1c(SC)ccc(SC)c1C2=O
inactive: dose: 50.0 mg/kg/injection, schedule: Q01DX009 (ip), vehicle: saline with Tween-80 93 % of control | dose: 100.0 mg/kg/injection, schedule: Q01DX009 (ip), vehicle: saline with Tween-80 96 % of control

C/C1=C\C(=O)OCC23CC(O)C4(C)OC4C2OC2CC(OC(=O)/C=C/C=C/C(C(C)O)OCC1O)C3(C)C21CO1 (stereo not drawn)
active: dose: 5.0 mg/kg/injection, schedule: Q01DX005 (ip), vehicle: saline + alcohol 155 % of control | dose: 10.0 mg/kg/injection, schedule: Q01DX005 (ip), vehicle: saline + alcohol 172 % of control
inactive: dose: 1.25 mg/kg/injection, schedule: Q01DX005 (ip), vehicle: saline + alcohol 120 % of control | dose: 2.5 mg/kg/injection, schedule: Q01DX005 (ip), vehicle: saline + alcohol 120 % of control

COC1(OC)C2(Cl)CC3C4(C)OC(Cl)(C31Cl)C42Cl (stereo not drawn)
inactive: dose: 60.0 mg/kg/injection, schedule: Q01DX005 (ip), vehicle: Klucel (hydroxypropylcellulose) (HPC) 105 % of control | dose: 120.0 mg/kg/injection, schedule: Q01DX005 (ip), vehicle: Klucel (hydroxypropylcellulose) (HPC) 101 % of control | dose: 240.0 mg/kg/injection, schedule: Q01DX005 (ip), vehicle: Klucel (hydroxypropylcellulose) (HPC) 100 % of control

CCCCCCCNc1ncnc2[nH]ncc12
inactive: [4] 112 % of control | [5] 107 % of control | [6] 107 % of control

COc1cc(-c2cnc3c(n2)c(=O)[nH]c(=O)n3C)ccc1O
inactive: dose: 100.0 mg/kg/injection, schedule: Q04DX002 (ip), vehicle: saline 104 % of control | dose: 200.0 mg/kg/injection, schedule: Q04DX002 (ip), vehicle: saline 103 % of control | dose: 400.0 mg/kg/injection, schedule: Q04DX002 (ip), vehicle: saline 95 % of control

O=[N+]([O-])CC(c1ccccc1)C(C[N+](=O)[O-])c1ccccc1 (stereo not drawn)
inactive: dose: 6.25 mg/kg/injection, schedule: Q01DX005 (ip), vehicle: saline with Tween-80 100 % of control | dose: 12.5 mg/kg/injection, schedule: Q01DX005 (ip), vehicle: saline with Tween-80 87 % of control | dose: 25.0 mg/kg/injection, schedule: Q01DX005 (ip), vehicle: saline with Tween-80 95 % of control | [4] 91 % of control | [5] 91 % of control and 86 % of control
